Columns and labels:
[1] = compound: Cc1ccc2nc(NCCN)c3ncc(C)n3c2c1 + CC(=O)Nc1cccc(-n2c(=O)n(C3CC3)c(=O)c3c(Nc4ccc(I)cc4F)n(C)c(=O)c(C)c32)c1 [Trametinib] (partner 0.02 µM); test: relative viability (nuclei count vs DMSO), 5 days (fraction); higher = more cells survive
Summary of the method: (§1)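 Values are medians from duplicate plates. Each reflects relative viability, defined as the nuclei count of treated wells over that of vehicle wells. Lung cancer cell lines in 1536-well plates were pin-tool dosed one day after seeding with one drug alone or with a fixed anchor-drug dose plus five library-drug doses (not always all listed) in √10 steps, then fixed, stained and imaged at 4× after 5 days.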

Salubrinal + Dasatinib = compound: O=C(/C=C/c1ccccc1)NC(NC(=S)Nc1cccc2cccnc12)C(Cl)(Cl)Cl [Salubrinal] + Cc1nc(Nc2ncc(C(=O)Nc3c(C)cccc3Cl)s2)cc(N2CCN(CCO)CC2)n1 [Dasatinib] (partner 0.075 µM); test: as above
Summary of the method: as §1

Cell Line	relative viability ([1]; first compound 0.04 µM)	relative viability ([1]; first compound 0.1265 µM)	relative viability ([1]; first compound 0.4 µM)	relative viability ([1]; first compound 1.265 µM)	relative viability ([1]; first compound 4 µM)	relative viability (Salubrinal + Dasatinib; first compound 0.08 µM)	relative viability (Salubrinal + Dasatinib; first compound 0.253 µM)	relative viability (Salubrinal + Dasatinib; first compound 0.8 µM)	relative viability (Salubrinal + Dasatinib; first compound 2.53 µM)	relative viability (Salubrinal + Dasatinib; first compound 8 µM)
HCC-44	1.11	0.971	1.03	1.1	1.01	–	–	–	–	–
HCC-827	0.557	0.51	0.539	0.626	0.555	0.357	0.251	0.27	0.326	0.393
NCI-H2342	0.822	0.805	0.821	0.917	0.849	0.304	0.278	0.305	0.298	0.291
NCI-H2347	0.269	0.289	0.264	0.29	0.3	0.295	0.327	0.317	0.346	0.318
PC-14	0.779	0.706	0.742	0.647	0.327	0.313	0.252	0.264	0.203	0.166
NCI-H1651	0.842	0.666	0.844	0.865	0.829	0.487	0.259	0.452	0.393	0.35
HARA	0.637	0.648	0.41	0.723	0.761	0.341	0.29	0.282	0.265	0.263
NCI-H1650	0.57	0.499	0.739	0.494	0.427	0.366	0.35	0.321	0.357	0.294
NCI-H1395	0.977	0.983	0.989	0.828	0.878	0.409	0.443	0.472	0.4	0.392
LU99A	0.501	0.604	0.541	0.618	0.577	0.537	0.597	0.688	0.593	0.416
NCI-H1355	0.44	0.448	0.392	0.39	0.387	0.764	0.569	0.806	0.685	0.603
HCC-78	0.703	0.672	0.699	0.527	0.536	0.404	0.343	0.688	0.361	0.363
NCI-H1563	–	–	–	–	–	0.446	0.514	0.555	0.453	0.502
HCC-15	0.425	0.373	0.364	0.356	0.381	0.723	0.586	0.701	0.627	0.498
EKVX	0.383	0.365	0.269	0.261	0.291	0.635	0.538	0.552	0.469	0.426
NCI-H2087	0.18	0.208	0.194	0.16	0.204	0.954	0.62	1.15	1.01	0.733
LK-2	0.921	0.576	0.682	0.617	0.672	0.378	0.302	0.296	0.312	0.342
NCI-H1437	0.578	0.463	0.445	0.415	0.381	0.406	0.42	0.487	0.507	0.243
COR-L23	0.581	0.564	0.624	0.648	0.506	0.522	0.496	0.645	0.53	0.453
ABC-1	–	–	–	–	–	0.54	0.508	0.633	0.634	0.554
SK-MES-1	0.545	0.556	0.539	0.594	0.573	0.428	0.32	0.408	0.371	0.271
NCI-H838	0.561	0.507	0.45	0.507	0.612	0.304	0.288	0.318	0.262	0.266
SW 900	–	0.901	0.827	0.749	0.621	1.09	–	0.66	0.584	0.497

Cell Line	relative viability ([1]; first compound 0.04 µM)	relative viability ([1]; first compound 0.1265 µM)	relative viability ([1]; first compound 0.4 µM)	relative viability ([1]; first compound 1.265 µM)	relative viability ([1]; first compound 4 µM)	relative viability (Salubrinal + Dasatinib; first compound 0.08 µM)	relative viability (Salubrinal + Dasatinib; first compound 0.253 µM)	relative viability (Salubrinal + Dasatinib; first compound 0.8 µM)	relative viability (Salubrinal + Dasatinib; first compound 2.53 µM)	relative viability (Salubrinal + Dasatinib; first compound 8 µM)
A-427	0.725	0.731	0.705	0.695	0.775	0.724	0.643	0.747	0.68	0.654
NCI-H1792	0.645	0.397	–	0.405	0.488	0.822	–	0.723	0.81	0.702
LCLC-97TM1	0.194	0.212	0.196	0.189	0.186	1.02	0.731	1.01	0.969	0.782
LCLC-103H	0.727	0.677	0.65	0.66	0.67	0.501	0.35	0.514	0.53	0.507
PC-3 [JPC-3]	0.656	0.738	0.62	0.601	0.529	1.14	0.762	1.1	0.966	0.961
BEN	0.97	0.929	1.07	0.958	1.05	0.34	0.406	0.397	0.313	0.308
NCI-H1666	0.907	0.796	0.773	0.863	0.8	0.845	0.721	0.799	0.806	0.613
LC-2-ad	0.927	0.963	0.881	0.965	0.86	0.543	0.354	1.11	0.581	0.448
SK-LU-1	0.427	0.509	0.478	0.546	0.462	0.188	0.22	0.181	0.172	0.176
ChaGo-K-1	0.884	0.924	0.904	0.849	0.77	0.685	0.544	0.667	0.57	0.524
COR-L 105	0.423	0.506	0.478	0.407	0.414	0.365	0.325	0.345	0.317	0.319
NCI-H1975	0.329	0.376	0.369	0.329	0.321	0.363	0.369	0.376	0.374	0.3
NCI-H1993	0.421	0.632	0.64	0.34	0.46	0.602	0.573	0.525	0.506	0.503
RERF-LC-KJ	0.857	0.805	0.888	0.86	0.828	0.928	0.771	0.92	0.827	0.634
NCI-H23	0.444	0.391	0.384	0.426	0.308	0.881	0.942	0.696	0.78	0.925
HCC-366	0.385	0.395	0.369	0.336	0.284	0.813	0.497	0.777	0.555	0.528
EMC-BAC-2	0.927	0.927	0.873	0.954	0.7	0.305	0.334	0.359	0.411	0.335
NCI-H2405	0.648	0.629	0.674	0.589	0.581	0.252	0.223	0.224	0.2	0.204
NCI-H1944	0.432	0.476	0.401	0.381	0.427	0.233	0.216	0.205	0.226	0.246
NCI-H1648	0.434	0.433	0.434	0.419	0.358	–	–	–	–	–
NCI-H358	0.133	0.153	0.13	0.137	0.129	0.173	0.23	0.154	0.149	0.145
EPLC-272H	0.296	0.334	0.282	0.253	0.245	0.41	0.324	0.357	0.383	0.294
NCI-H1915	0.304	0.297	0.28	0.296	0.294	0.359	0.373	0.323	0.298	0.345

Cell Line	relative viability ([1]; first compound 0.04 µM)	relative viability ([1]; first compound 0.1265 µM)	relative viability ([1]; first compound 0.4 µM)	relative viability ([1]; first compound 1.265 µM)	relative viability ([1]; first compound 4 µM)	relative viability (Salubrinal + Dasatinib; first compound 0.08 µM)	relative viability (Salubrinal + Dasatinib; first compound 0.253 µM)	relative viability (Salubrinal + Dasatinib; first compound 0.8 µM)	relative viability (Salubrinal + Dasatinib; first compound 2.53 µM)	relative viability (Salubrinal + Dasatinib; first compound 8 µM)
NCI-H596	0.834	0.732	0.806	0.74	0.763	0.633	0.509	0.569	0.633	0.56
NCI-H322M	0.522	0.538	0.495	0.502	0.535	0.267	0.24	0.256	0.265	0.274
NCI-H2228	0.549	0.501	0.522	0.519	0.424	0.568	0.485	0.508	0.528	0.431
NCI-H522	0.641	0.753	0.791	0.719	0.684	0.988	0.976	0.981	0.869	0.972
NCI-H647	0.542	0.378	0.437	0.419	0.341	0.168	0.203	0.235	0.243	0.137
NCI-H2170	0.892	0.915	0.871	0.83	0.921	0.764	0.526	0.71	0.57	0.534
NCI-H1793	0.371	0.363	0.525	0.363	0.4	0.448	0.421	0.359	0.385	0.398
NCI-H2085	1.03	0.63	0.502	0.491	0.499	0.228	0.227	0.258	0.249	0.246
SW 1573	0.584	0.6	0.602	0.612	0.306	0.553	0.488	0.627	0.402	0.417
NCI-H727	0.453	–	0.398	0.383	0.435	0.311	0.38	0.341	0.409	0.375
NCI-H441	0.487	0.47	0.342	0.346	0.512	0.781	0.5	0.756	0.65	0.47
LOU-NH91	0.819	0.792	0.794	0.787	0.775	0.565	0.481	0.672	0.56	0.499
NCI-H3122	0.21	0.26	0.248	0.259	0.238	0.828	0.869	0.802	0.846	0.914
NCI-H460	0.165	0.146	0.171	0.197	0.0969	0.641	0.56	0.644	0.565	0.422
NCI-H650	1.03	0.911	1.07	0.955	0.864	0.425	0.462	0.462	0.474	0.413
NCI-H661	0.579	0.57	0.567	0.574	0.544	0.995	0.921	0.928	0.871	0.86
NCI-H1623	–	–	–	–	–	0.475	0.485	0.54	0.514	0.572
NCI-H1734	0.719	0.632	0.755	0.638	0.707	0.485	0.462	0.574	0.465	0.422
LXF-289	0.669	0.629	0.696	0.645	0.663	0.173	0.241	0.234	0.236	0.15
H3255	0.562	0.554	0.564	0.523	0.575	0.291	0.366	0.459	0.35	0.356
201T	0.72	0.696	0.713	0.738	0.684	0.56	0.596	0.669	0.602	0.573
NCI-H2126	0.547	0.563	0.522	0.607	0.552	0.66	0.554	0.62	0.592	0.46

— the supplement of paper PMC10307832
